According to ChEMBL document CHEMBL1201862, “PubChem BioAssay data set” (2004):
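Five compound concentrations were applied to cells in 96-well plates for 48 hours; endpoints were derived by simple linear interpolation of the resulting dose-response curve. Abbreviation: GI50, concentration required for 50% inhibition of growth.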 The source made the active and inactive calls. Cut-off read from the data, not from the text of the source: active = GI50 up to about 1.1 µM and inactive = higher.

Assays:
Assay in all cases: NCI anticancer screen, dose series, 48 h
SF-268 = system: SF-268
SK-MEL-5 = system: SK-MEL-5
CCRF-CEM = system: CCRF-CEM
IGROV-1 = system: IGROV-1
COLO 205 = system: COLO 205
BT-549 = system: BT-549
NCI-H460 = system: NCI-H460
DU-145 = system: DU-145
CAKI-1 = system: CAKI-1
SNB-75 = system: SNB-75
HL-60 = system: HL-60
Malme-3M = system: Malme-3M
SK-MEL-28 = system: SK-MEL-28
A549 = system: A549
UACC-62 = system: UACC-62
ACHN = system: ACHN
T47D = system: T47D
HCT-116 = system: HCT-116
MDA-MB-435 = system: MDA-MB-435
SNB-19 = system: SNB-19
Hs-578T = system: Hs-578T
KM12 = system: KM12
HOP-92 = system: HOP-92
LOX IMVI = system: LOX IMVI
PC-3 = system: PC-3
MOLT-4 = system: MOLT-4
NCI-H226 = system: NCI-H226
HT-29 = system: HT-29
HOP-62 = system: HOP-62
SF-295 = system: SF-295
A498 = system: A498
NCI-H522 = system: NCI-H522
UACC-257 = system: UACC-257
M14 = system: M14
SF-539 = system: SF-539
NCI/ADR-RES = system: NCI/ADR-RES
HCT-15 = system: HCT-15
MCF7 = system: MCF7
OVCAR-4 = system: OVCAR-4
RXF 393 = system: RXF 393
TK-10 = system: TK-10
OVCAR-5 = system: OVCAR-5
MDA-MB-231 = system: MDA-MB-231
SK-OV-3 = system: SK-OV-3
K562 = system: K562
OVCAR-8 = system: OVCAR-8
RPMI-8226 = system: RPMI-8226
SN12C = system: SN12C
786-0 = system: 786-0
U-251 = system: U-251
SK-MEL-2 = system: SK-MEL-2
HCC 2998 = system: HCC 2998
EKVX = system: EKVX
MDA-N = system: MDA-N
SR = system: SR
SW-620 = system: SW-620
NCI-H23 = system: NCI-H23
OVCAR-3 = system: OVCAR-3

## c1ccc(C2=NOC(c3ccccc3)N2C23CC4CC(CC(C4)C2)C3)cc1 (stereo not drawn)
SF-268
  GI50: > 10 µM (inactive)
SK-MEL-5
  GI50: > 10 µM (inactive)
CCRF-CEM
  GI50: > 10 µM (inactive)
IGROV-1
  GI50: > 10 µM (inactive)
COLO 205
  GI50: > 10 µM (inactive)
BT-549
  GI50: > 10 µM (inactive)
NCI-H460
  GI50: > 10 µM (inactive)
DU-145
  GI50: > 10 µM (inactive)
CAKI-1
  GI50: > 10 µM (inactive)
SNB-75
  GI50: 5.19 µM (inactive)
HL-60
  GI50: > 10 µM (inactive)
Malme-3M
  GI50: > 10 µM (inactive)
SK-MEL-28
  GI50: > 10 µM (inactive)
A549
  GI50: > 10 µM (inactive)
UACC-62
  GI50: > 10 µM (inactive)
ACHN
  GI50: > 10 µM (inactive)
T47D
  GI50: > 10 µM (inactive)
HCT-116
  GI50: > 10 µM (inactive)
MDA-MB-435
  GI50: > 10 µM (inactive)
SNB-19
  GI50: > 10 µM (inactive)
Hs-578T
  GI50: > 10 µM (inactive)
KM12
  GI50: > 10 µM (inactive)
HOP-92
  GI50: > 10 µM (inactive)
LOX IMVI
  GI50: > 10 µM (inactive)
PC-3
  GI50: > 10 µM (inactive)
MOLT-4
  GI50: 9.53 µM (inactive)
NCI-H226
  GI50: > 10 µM (inactive)
HT-29
  GI50: > 10 µM (inactive)
HOP-62
  GI50: > 10 µM (inactive)
SF-295
  GI50: > 10 µM (inactive)
A498
  GI50: > 10 µM (inactive)
NCI-H522
  GI50: > 10 µM (inactive)
UACC-257
  GI50: 9.73 µM (inactive)
M14
  GI50: > 10 µM (inactive)
SF-539
  GI50: > 10 µM (inactive)
NCI/ADR-RES
  GI50: > 10 µM (inactive)
HCT-15
  GI50: > 10 µM
MCF7
  GI50: 5.82 µM (inactive)
OVCAR-4
  GI50: > 10 µM (inactive)
RXF 393
  GI50: > 10 µM (inactive)
TK-10
  GI50: > 10 µM (inactive)
OVCAR-5
  GI50: > 10 µM (inactive)
MDA-MB-231
  GI50: > 10 µM (inactive)
SK-OV-3
  GI50: > 10 µM (inactive)
K562
  GI50: > 10 µM (inactive)
OVCAR-8
  GI50: > 10 µM (inactive)
RPMI-8226
  GI50: > 10 µM (inactive)
SN12C
  GI50: > 10 µM (inactive)
786-0
  GI50: > 10 µM (inactive)
U-251
  GI50: > 10 µM (inactive)
SK-MEL-2
  GI50: > 10 µM (inactive)
HCC 2998
  GI50: > 10 µM (inactive)
EKVX
  GI50: > 10 µM (inactive)
MDA-N
  GI50: > 10 µM (inactive)
SR
  GI50: 0.785 µM (active)
SW-620
  GI50: > 10 µM (inactive)
NCI-H23
  GI50: > 10 µM (inactive)
OVCAR-3
  GI50: > 10 µM (inactive)
